Columns and labels:
Lck = Lck (Homo sapiens, UniProt P06239); format: biochemical
[1] = test system: T cell receptor (TCR) signaling; format: cell-based, human

Sequence of Lck (P06239 whole entry): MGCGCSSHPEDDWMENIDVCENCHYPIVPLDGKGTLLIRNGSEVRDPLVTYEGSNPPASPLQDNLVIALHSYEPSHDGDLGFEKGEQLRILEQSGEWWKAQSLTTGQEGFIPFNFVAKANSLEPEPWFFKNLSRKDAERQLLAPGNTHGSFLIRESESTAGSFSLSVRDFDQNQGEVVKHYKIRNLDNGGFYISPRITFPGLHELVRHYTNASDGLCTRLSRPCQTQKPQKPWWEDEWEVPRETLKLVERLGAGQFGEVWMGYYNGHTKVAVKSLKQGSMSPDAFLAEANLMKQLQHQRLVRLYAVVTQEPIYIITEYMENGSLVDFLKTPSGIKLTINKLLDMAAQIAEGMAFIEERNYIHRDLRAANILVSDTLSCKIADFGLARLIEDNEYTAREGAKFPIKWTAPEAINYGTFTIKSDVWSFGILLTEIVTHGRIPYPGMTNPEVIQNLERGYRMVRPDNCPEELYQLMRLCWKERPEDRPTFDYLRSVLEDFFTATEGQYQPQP

With GGAGLTGGRYEPLVRRC [TAT-276-292] the “Lck-mediated phosphorylation of synthetic peptide” value (Lck) was “served as an in vitro Lck substrate”.

For GGGGGRKKRRQRRRVYGSVSVTCVWGS [TAT-Y87], the “Lck-mediated phosphorylation of synthetic peptide” value (Lck) was “phosphorylated by Lck in a dose-dependent manner”, the “IL-2 production by PBMCs following TCR stimulation” value [1] was “inhibited” and the “surface expression of T cell activation marker CD25” value [1] was “significantly reduced”. For the same sequence, the “surface expression of T cell activation marker CD69” value [1] was “significantly reduced”.

Source: patent US20160067331A1 (priority 2013, published 2016)
